Key:
Musca domestica = assay: Insecticidal activity against Musca domestica (house fly) after 24 hr; format: functional
Rhyzopertha dominica = assay: Insecticidal activity against Rhyzopertha dominica after 24 hr; format: functional

SMILES	LC50 (Musca domestica)	LC50 (Rhyzopertha dominica)
N#CC(O)C1CC1 (stereo unspecified) [CYCLOPROPYLCARBOXALDEHYDE]	1.54 µM	4.12 µM
C=CC(C#N)OC (stereo unspecified)	4.22 µM	9.06 µM
CC=C(Cl)Cl [DICHLOROPROPENE]	8.11 µM	49.3 µM
CC(C)(O)C#N [DIMETHYLKETONE CYANOHYDRIN]	0.82 µM	4.7 µM
C=CC(O)C#N (stereo unspecified)	0.67 µM	4.45 µM
CCC(C)(O)C#N (stereo unspecified) [METHYLETHYL KETONE CYANOHYDRIN]	0.91 µM	4.14 µM
COP(=O)(OC)OC=C(Cl)Cl [DICHLORVOS]	0.05 µM	1.31 µM
C=CC(C#N)OC(=O)C(C)(C)C (stereo unspecified) [1-CYANOALLYL PIVALATE]	8.19 µM	14.4 µM
C=CC(C#N)OC(C)=O (stereo unspecified) [1-CYANOALLYL ACETATE]	2.08 µM	2.96 µM
C=CC(C)(O)C#N (stereo unspecified) [METHYLVINYL KETONE CYANOHYDRIN]	2.27 µM	9.47 µM
CC(O)(C#N)C1CC1 (stereo unspecified) [CYCLOPROPYLMETHYLKETONE CYANOHYDRIN]	1.35 µM	3.6 µM
C=CC(C#N)OC(=O)CC (stereo unspecified) [1-CYANOALLYL PROPIONATE]	4.74 µM	5.03 µM
CC(O)(C#N)CF (stereo unspecified)	0.87 µM	3.2 µM

From ChEMBL document CHEMBL3046119, “QSAR evaluation of cyanohydrins' fumigation toxicity to house fly (Musca domestica) and lesser grain borer (Rhyzopertha dominica)” (2002)
